Measurements as given in ChEMBL document CHEMBL1201862, “PubChem BioAssay data set” (2004).
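Assay format: 96-well plates, 48-hour exposure. At the GI50, growth is halved.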 Activity calls are given as the source filed them. Cut-off read from the data, not from the text of the source: active = GI50 up to about 1.1 µM and inactive = higher.

Tests used:
Assay in all cases: growth of human tumour cells (NCI), 48 h
NCI/ADR-RES = test system: NCI/ADR-RES
TK-10 = test system: TK-10
SK-OV-3 = test system: SK-OV-3
SF-295 = test system: SF-295
PC-3 = test system: PC-3
NCI-H23 = test system: NCI-H23
CAKI-1 = test system: CAKI-1
SR = test system: SR
MCF7 = test system: MCF7
SK-MEL-2 = test system: SK-MEL-2
CCRF-CEM = test system: CCRF-CEM
UO-31 = test system: UO-31
MDA-MB-435 = test system: MDA-MB-435
RPMI-8226 = test system: RPMI-8226
DU-145 = test system: DU-145
HCC 2998 = test system: HCC 2998
LOX IMVI = test system: LOX IMVI
SNB-75 = test system: SNB-75
SNB-19 = test system: SNB-19
A498 = test system: A498
Hs-578T = test system: Hs-578T
COLO 205 = test system: COLO 205
ACHN = test system: ACHN
OVCAR-4 = test system: OVCAR-4
OVCAR-8 = test system: OVCAR-8
HL-60 = test system: HL-60
MOLT-4 = test system: MOLT-4
HOP-92 = test system: HOP-92
HCT-116 = test system: HCT-116
K562 = test system: K562
A549 = test system: A549
U-251 = test system: U-251
HT-29 = test system: HT-29
786-0 = test system: 786-0
MDA-MB-231 = test system: MDA-MB-231
T47D = test system: T47D
SF-539 = test system: SF-539
BT-549 = test system: BT-549
NCI-H226 = test system: NCI-H226
KM12 = test system: KM12
SN12C = test system: SN12C
RXF 393 = test system: RXF 393
M14 = test system: M14
SK-MEL-28 = test system: SK-MEL-28
SW-620 = test system: SW-620
NCI-H522 = test system: NCI-H522
OVCAR-5 = test system: OVCAR-5
IGROV-1 = test system: IGROV-1
SF-268 = test system: SF-268
HOP-62 = test system: HOP-62
Malme-3M = test system: Malme-3M
HCT-15 = test system: HCT-15
OVCAR-3 = test system: OVCAR-3
EKVX = test system: EKVX
NCI-H460 = test system: NCI-H460
SK-MEL-5 = test system: SK-MEL-5
UACC-62 = test system: UACC-62
MDA-N = test system: MDA-N
UACC-257 = test system: UACC-257

For C=CCOC1=C(OCC=C)C(C2COC(C)(C)O2)OC1=O (stereo unspecified), the GI50 (NCI/ADR-RES) was > 100 µM (inactive), the GI50 (TK-10) was > 100 µM (inactive) and the GI50 (SK-OV-3) was > 100 µM (inactive). For the same compound, the GI50 (SF-295) was > 100 µM (inactive), the GI50 (PC-3) was > 100 µM (inactive) and the GI50 (NCI-H23) was > 100 µM (inactive). The GI50 (CAKI-1) was 18.7 µM (inactive), the GI50 (SR) was 98.2 µM (inactive) and the GI50 (MCF7) was > 100 µM (inactive). The GI50 (SK-MEL-2) was > 100 µM (inactive), the GI50 (CCRF-CEM) was 29.4 µM (inactive) and the GI50 (UO-31) was > 100 µM (inactive). The GI50 (MDA-MB-435) was > 100 µM (inactive), the GI50 (RPMI-8226) was 45.9 µM (inactive) and the GI50 (DU-145) was > 100 µM (inactive). For the same compound, the GI50 (HCC 2998) was > 100 µM (inactive), the GI50 (LOX IMVI) was 33.2 µM (inactive) and the GI50 (SNB-75) was > 100 µM (inactive). For the same compound, the GI50 (SNB-19) was > 100 µM (inactive), the GI50 (A498) was > 100 µM (inactive) and the GI50 (Hs-578T) was > 100 µM (inactive). For the same compound, the GI50 (COLO 205) was > 100 µM (inactive), the GI50 (ACHN) was > 100 µM (inactive) and the GI50 (OVCAR-4) was > 100 µM (inactive). The GI50 (OVCAR-8) was > 100 µM (inactive), the GI50 (HL-60) was 45 µM (inactive) and the GI50 (MOLT-4) was > 100 µM (inactive). The GI50 (HOP-92) was 14.8 µM (inactive), the GI50 (HCT-116) was > 100 µM (inactive) and the GI50 (K562) was 75.5 µM (inactive). For the same compound, the GI50 (A549) was > 100 µM (inactive), the GI50 (U-251) was > 100 µM (inactive) and the GI50 (HT-29) was > 100 µM (inactive). For the same compound, the GI50 (786-0) was 67 µM (inactive), the GI50 (MDA-MB-231) was > 100 µM (inactive) and the GI50 (T47D) was > 100 µM (inactive). For the same compound, the GI50 (SF-539) was > 100 µM (inactive), the GI50 (BT-549) was > 100 µM (inactive) and the GI50 (NCI-H226) was > 100 µM (inactive). The GI50 (KM12) was > 100 µM (inactive), the GI50 (SN12C) was > 100 µM (inactive) and the GI50 (RXF 393) was > 100 µM (inactive). The GI50 (M14) was > 100 µM (inactive), the GI50 (SK-MEL-28) was > 100 µM (inactive) and the GI50 (SW-620) was > 100 µM (inactive). For the same compound, the GI50 (NCI-H522) was 22.1 µM (inactive), the GI50 (OVCAR-5) was > 100 µM (inactive) and the GI50 (IGROV-1) was > 100 µM (inactive). For the same compound, the GI50 (SF-268) was > 100 µM (inactive), the GI50 (HOP-62) was > 100 µM (inactive) and the GI50 (Malme-3M) was > 100 µM (inactive). The GI50 (HCT-15) was over 100 µM, the GI50 (OVCAR-3) was > 100 µM (inactive) and the GI50 (EKVX) was > 100 µM (inactive). For the same compound, the GI50 (NCI-H460) was > 100 µM (inactive), the GI50 (SK-MEL-5) was > 100 µM (inactive) and the GI50 (UACC-62) was > 100 µM (inactive). For the same compound, the GI50 (MDA-N) was > 100 µM (inactive) and the GI50 (UACC-257) was > 100 µM (inactive).
In the case of CC(C)(Oc1ccc(Cl)cc1)C(=O)N(C(=O)N1CCN(c2ccccc2)CC1)c1ccccc1, the GI50 (NCI/ADR-RES) is reported as 7.05 µM (inactive), the GI50 (TK-10) is reported as 68.5 µM (inactive) and the GI50 (SK-OV-3) is reported as > 100 µM (inactive). For the same compound, the GI50 (SF-295) was 33.2 µM (inactive), the GI50 (PC-3) was 4.78 µM (inactive) and the GI50 (NCI-H23) was 8.83 µM (inactive). For the same compound, the GI50 (CAKI-1) was 7.87 µM (inactive), the GI50 (SR) was 3.76 µM (inactive) and the GI50 (MCF7) was 8.59 µM (inactive). For the same compound, the GI50 (SK-MEL-2) was > 100 µM (inactive), the GI50 (CCRF-CEM) was 7.1 µM (inactive) and the GI50 (UO-31) was 11.7 µM (inactive). The GI50 (MDA-MB-435) was 16.2 µM (inactive), the GI50 (DU-145) was > 100 µM (inactive) and the GI50 (HCC 2998) was 92.5 µM (inactive). For the same compound, the GI50 (LOX IMVI) was > 100 µM (inactive), the GI50 (SNB-75) was > 100 µM (inactive) and the GI50 (SNB-19) was > 100 µM (inactive). For the same compound, the GI50 (A498) was 84.9 µM (inactive), the GI50 (Hs-578T) was > 100 µM (inactive) and the GI50 (COLO 205) was 6.49 µM (inactive). For the same compound, the GI50 (ACHN) was 9.71 µM (inactive), the GI50 (OVCAR-4) was 8.49 µM (inactive) and the GI50 (OVCAR-8) was > 100 µM (inactive). For the same compound, the GI50 (HL-60) was 4.16 µM (inactive), the GI50 (MOLT-4) was 4.12 µM (inactive) and the GI50 (HOP-92) was > 100 µM (inactive). The GI50 (HCT-116) was 4.06 µM (inactive), the GI50 (K562) was 3.96 µM (inactive) and the GI50 (A549) was 7.46 µM (inactive). The GI50 (U-251) was 6.21 µM (inactive), the GI50 (HT-29) was 6.25 µM (inactive) and the GI50 (786-0) was 28.4 µM (inactive). For the same compound, the GI50 (MDA-MB-231) was > 100 µM (inactive), the GI50 (T47D) was 5.48 µM (inactive) and the GI50 (SF-539) was 34.4 µM (inactive). The GI50 (BT-549) was > 100 µM (inactive), the GI50 (NCI-H226) was 8.09 µM (inactive) and the GI50 (KM12) was 6.22 µM (inactive). The GI50 (SN12C) was 42.3 µM (inactive), the GI50 (RXF 393) was > 100 µM (inactive) and the GI50 (M14) was 45.7 µM (inactive). The GI50 (SK-MEL-28) was > 100 µM (inactive), the GI50 (SW-620) was 8.93 µM (inactive) and the GI50 (NCI-H522) was 5.57 µM (inactive). The GI50 (OVCAR-5) was > 100 µM (inactive), the GI50 (SF-268) was > 100 µM (inactive) and the GI50 (HOP-62) was > 100 µM (inactive). For the same compound, the GI50 (Malme-3M) was > 100 µM (inactive), the GI50 (HCT-15) was 6.61 µM and the GI50 (OVCAR-3) was 26.7 µM (inactive). For the same compound, the GI50 (EKVX) was 5.83 µM (inactive), the GI50 (NCI-H460) was 3.75 µM (inactive) and the GI50 (SK-MEL-5) was 4.68 µM (inactive). For the same compound, the GI50 (UACC-62) was 5.83 µM (inactive), the GI50 (MDA-N) was 62.8 µM (inactive) and the GI50 (UACC-257) was 5.62 µM (inactive).
